Measured values as given in patent US10736910B2, “Treatment of autophagy-based disorders and related pharmaceutical compositions, diagnostic and screening assays and kits” (STC.UNM, priority 2012, dated 2020).
Square brackets hold non-standard residues; d marks the D form. Peptide text beside a SMILES is read from it. Nle = CCCC[C@H](N)C(=O)O

Experiments:
TBK-1 = assay: IL-1β secretion with pharmacological TBK-1 inhibition (preliminary studies); type: cell-based; details: preliminary studies with TBK-1 inhibitor
[1] = system: Atg5fl/fl LysM-Cre− and Cre+ bone marrow-derived macrophages (BMM); assay: IL-1α release (ELISA) from LPS- and IFN-γ-stimulated bone marrow-derived macrophages; type: cell-based, murine; details: 12 h; for IL-1α secreted: autophagy-competent Atg5fl/fl LysM-Cre− BMM, LPS and IFN-γ stimulated, 50 μg/ml rapamycin, 10 mM 3-MA or 100 nM Bafilomycin A1
Text: FIG. 5. Excess cytokine secretion is a cell-autonomous property of autophagy-deficient macrophages and IL-1α hypersecretion by Atg5^fl/fl LysM-Cre^+ macrophages depends on reactive oxygen intermediates and calpain. (A-C) In vitro cytokine (IL-1α, CXCL1, and IL-12p70) release (ELISA) from LPS- and IFN-γ-stimulated Atg5^fl/fl LysM-Cre^− and Cre^+ bone marrow-derived macrophages (BMM). (D) CXCL1 released from LPS- and IFN-γ-stimulated Atg5^fl/fl LysM-Cre^+ BMM in the absence of presence of IL-1RA ([…]). (E) Fraction of 7-AAD^+ BMM after LPS and IFN-γ stimulation in vitro. (F,G) IL-1α and CXCL1 levels (ELISA) in lung homogenates of uninfected Atg5^fl/fl LysM-Cre^− and Cre^+ mice. (H,I) IL-1α (ELISA) released from LPS- and IFN-γ stimulated Atg5^fl/fl LysM-Cre BMM in the presence of 50 μg/ml rapamycin (Rap), 10 mM 3-MA, or 100 nM Bafilomycin A1 (Baf A1) after 12 h of stimulation. (J) IL-1α secretion during inflammasome activation. Atg5^fl/fl LysM-Cre^− and Cre^+ BMM were pretreated overnight with LPS (100 ng/ml) then stimulated for 1 h in the absence or presence of the inflammasome agonist silica (250 μg/ml) in EBSS. (K) IL-1α secretion in the presence of caspase 1 inhibitor YVAD. Atg5^fl/fl LysM-Cre^− and Cre^+ BMM were pretreated overnight with LPS (100 ng/ml) then stimulated for 1 h in the absence or presence of YVAD (50 μM) during inflammasome activation with silica as in J. (L) Effects of caspase 1 siRNA knockdown (immunoblot, left) on IL-1α release (graph, right) from Atg5^fl/fl LysM-Cre^+ BMM. Graph (center), IL-1α release from LPS-stimulated siRNA-treated Atg5^fl/fl LysM-Cre^+ BMM in full media or EBSS (Starv). Graph (right), same as middle graph in full medium only. Casp 1, caspase 1 siRNA: Scr, scrambled, control siRNA. (M) IL-1α release from LPS- and IFN-γ-stimulated Atg5^fl/fl LysM-Cre^+ BMM knocked down with siRNA for inflammasome components ASC and NLRP3. (N,O) ROS inhibition and IL-1 secretion: IL-1α (N) and IL-1β (0) released (ELISA) from LPS- and IFN-γ-stimulated Atg5^fl/fl LysM-Cre^− and Cre^+ BMM in the absence or presence of ROS antagonist APDC (50 μM) after 12 h of incubation. (P) Calpain and […] hypersecretion phenotype. IL-1β (ELISA) released from LPS- and IFN-γ stimulated Atg5^fl/fl LysM-Cre^− and Cre^+ BMM in the absence or presence of calpain inhibitor ALLN (100 μM) after 12 h of stimulation. Data, mean±SE, *p<0.05, **p<0.01, † p>0.05 (t test; n≥3).
(§1) All cells were pretreated with Stain FcX (anti-CD16/32) (Biolegend) before being stained for. […] Caspase 1 activity was measured by flow cytometry using the FLICA caspase 1 reagent (FAM-YVAD-FMK) (Immunochemistry Technologies). […] Secreted cytokines (IL-1αIL-1β CXCL1, CXCL2 and IL-12p70) were measured by ELISA (R&D Systems). […]

[2] = system: Atg5fl/fl LysM-Cre− and Cre+ bone marrow-derived macrophages (BMM); assay: IL-1β release (ELISA) from LPS- and IFN-γ-stimulated bone marrow-derived macrophages; type: cell-based, murine; details: APDC 50 μM, 12 h
Text: (§2) FIG. 5. Excess cytokine secretion is a cell-autonomous property of autophagy-deficient macrophages and IL-1α hypersecretion by Atg5^fl/fl LysM-Cre^+ macrophages depends on reactive oxygen intermediates and calpain. (A-C) In vitro cytokine (IL-1α, CXCL1, and IL-12p70) release (ELISA) from LPS- and IFN-γ-stimulated Atg5^fl/fl LysM-Cre^− and Cre^+ bone marrow-derived macrophages (BMM). (D) CXCL1 released from LPS- and IFN-γ-stimulated Atg5^fl/fl LysM-Cre^+ BMM in the absence of presence of IL-1RA ([…]). (E) Fraction of 7-AAD^+ BMM after LPS and IFN-γ stimulation in vitro. (F,G) IL-1α and CXCL1 levels (ELISA) in lung homogenates of uninfected Atg5^fl/fl LysM-Cre^− and Cre^+ mice. (H,I) IL-1α (ELISA) released from LPS- and IFN-γ stimulated Atg5^fl/fl LysM-Cre BMM in the presence of 50 μg/ml rapamycin (Rap), 10 mM 3-MA, or 100 nM Bafilomycin A1 (Baf A1) after 12 h of stimulation. (J) IL-1α secretion during inflammasome activation. […]
FIG. 10. […] IL-1β secretion was examined in autophagy-competent Atg5fl/fl LysM-CreBMM and IL-1α secretion was measured in autophagy-deficient Atg5fl/fl LysM-Cre+ BMM. […]
All cells were pretreated with Stain FcX (anti-CD16/32) (Biolegend) before being stained for. […] Caspase 1 activity was measured by flow cytometry using the FLICA caspase 1 reagent (FAM-YVAD-FMK) (Immunochemistry Technologies). […]

Atg5fl/fl LysM-Cre+ BMM = assay: CXCL1 release (ELISA) from LPS- and IFN-γ-stimulated Atg5fl/fl LysM-Cre+ BMM; type: cell-based, murine; design: dose or concentration left out as unconfirmed; details: IL-1RA
Text: as §2, §1

BMM = assay: HMGB1 extracellular release from BMM (immunoblot of culture supernatants); type: cell-based, murine; details: BMM stimulated with nigericin; largely diminished in Atg5-deficient BMM
Text: We tested whether induction of autophagy affected other proteins not connected to proteolytic processing in the inflammasome, such as HMGB1 (high mobility group box 1 protein). HMGB1 is a major pro-inflammatory alarmin or DAMP (damage-associated molecular pattern) normally present in the nucleus (34A). This chromatin-associated nuclear protein (with additional intracellular and extracellular signaling roles), upon exposure to inputs including those that induce autophagy (63A,64A), undergoes a complex set of biochemical and localization changes. In the process, it first translocates from the nucleus into the cytoplasm and then is released from the cytoplasm to act in tissue remodeling signaling (when acting alone) or as an inflammatory mediator (when combined with bacterial agonists or other alarmins such as IL-1β). […] HMGB1, along with additional unconventional substrates, depends on inflammasome for secretion although the protein itself is not subjected to proteolytic processing by caspase 1 (65A-68A).

naïve CD4 T cells = assay: Ex vivo Th17 polarization of naïve CD4 T cells (intracellular IL-17A, flow cytometry); type: cell-based, mice; details: 20 ng/ml IL-1α in combination with 5 ng/ml TGF-β and 20 ng/ml IL-6, day 4
Experimental: FIG. 9. T cell activation state and IL-1α role in T cell IL-17 polarization. (A,B) CD44 and CD25 expression on CD4 T cells from lungs of uninfected Atg5fl/fl LysM-Cre and Cre+mice. (C-F) Intracellular IL-17A production (day 4; release blocked with monensin) by naïve CD4 T cells polarized in the presence of cytokine cocktails: 5 ng/ml TGF-β and 20 ng/ml IL-6, plus 20 ng/ml IL-1α or 20 ng/ml IL-1β. Dot plot (panel C), levels of IL-17A in unstimulated cells (starting material). Histograms (D,E), IL-17A in naïve CD4 T cells polarized in the presence of TGF-β, IL-6 and IL-1α (panel D) or TGF-β, IL-6 and IL-1β (panel E). (F) Percent of IL-17A+CD4 T cells under respective polarizing conditions. Data: mean±SE; † p>0.05 (t test; n≥3).
Single cell suspensions from whole lungs isolated from naïve Atg5^fl/fl LysM-Cre^+ and Cre^− mice were cultured in RPMI 10% FBS and Cell Stimulation Cocktail (phorbol 12-myristate 13-acetate and ionomycin plus brefeldin A and monensin; eBioscience) for 4 h and analyzed by flow cytometry. […] After 4 days, cells were stimulated with 1× Cell Stimulation Cocktail in the presence of protein transport inhibitors for 5 hours at 37° C. and analyzed by flow cytometry.

## O=C(NCCCNc1nc(Nc2cccc(NC(=O)N3CCCC3)c2)ncc1I)c1cccs1 [BX795]
TBK-1
  IL-1β secretion: reduced

## CCCC[C@@H](C=O)NC(=O)[C@H](CC(C)C)NC(=O)[C@H](CC(C)C)NC(C)=O [ALLN] (Ac-Leu-Leu-[Nle]-aldehyde)
[1]; LPS- and IFN-γ-stimulated Atg5fl/fl LysM-Cre+ BMM, ALLN 100 μM
  excess IL-1α production: completely inhibited the excess IL-1α production

## N[C@@]1(C(=O)O)CN[C@@H](C(=O)O)C1 [APDC, (2R,4R)-4-aminopyrrolidine-2,4-dicarboxylate]
[1]; LPS- and IFN-γ-stimulated Atg5fl/fl LysM-Cre+ BMM, APDC 50 μM
  excessive IL-1α release: abrogated excessive IL-1α
[2]
  excessive IL-1β release: inhibited excessive IL-1β release

## Cn1cnc(N)c2ncnc1-2 [3MA, 3-methyladenine]
[1]
  IL-1α secreted: significantly increased

## IL-1RA: IL-1 receptor antagonist (R&D Systems)
Atg5fl/fl LysM-Cre+ BMM
  CXCL1 levels: lowered CXCL1 levels

## CO[C@@H]1C[C@@H](C[C@H]2CC[C@H](C)[C@H]([C@@H](C)C(=O)O)O2)O[C@]2(O[C@](C)([C@H]3CC[C@@](C)([C@@H]4O[C@@H]([C@H]5O[C@@](O)(CO)[C@H](C)C[C@@H]5C)C[C@@H]4C)O3)C[C@H]2C)[C@@H]1C [nigericin]
BMM
  HMGB1 in culture supernatants: An HMGB1 band was detected

## CO/C1=C\C(C)=C\[C@@H](C)[C@@H](O)[C@@H](C)C/C(C)=C/C=C/[C@H](OC)[C@@H]([C@@H](C)[C@@H](O)[C@H](C)[C@@]2(O)C[C@@H](O)[C@H](C)[C@@H](C(C)C)O2)OC1=O [bafilomycin A1]
[1]
  IL-1α secreted: An effect similar to 3MA

B1: IL-1α: cytokine (R&D Systems) added at 20 ng/ml for T cell polarization (protein, UniProt P01583 113-271, looked up)
Interleukin-1 alpha: SAPFSFLSNVKYNFMRIIKYEFILNDALNQSIIRANDQYLTAAALHNLDEAVKFDMGAYKSSKDDAKITVILRISKTQLYVTAQDEDQPVLLKEMPEIPKTITGSETNLLFFWETHGTKNYFTSVAHPNLFIATKQDYWVCLAGGPPSITDFQILENQA
naïve CD4 T cells
  Th17 polarization (IL-17A+ CD4 T cells): showed a capacity to promote Th17 polarization
